Assays:
Plasmodium falciparum [1] = test: NOVARTIS: Inhibition of Plasmodium falciparum 3D7 (drug-susceptible) proliferation in erythrocyte-based infection assay; assay type: functional, organism-based; conditions: Plasmodium falciparum, 3D7
[2] = NOVARTIS: Cytotoxicity against human hepatocellular carcinoma cell line (Huh7); assay type: toxicity, cell-based, Huh-7; conditions: Huh7 cells (hepatocellular carcinoma cell line)
Plasmodium falciparum [3] = test: NOVARTIS: Inhibition of Plasmodium falciparum W2 (drug-resistant) proliferation in erythrocyte-based infection assay; assay type: functional, organism-based; conditions: Plasmodium falciparum, W2; read-out: EC50

Structure (SMILES)	EC50 (Plasmodium falciparum [1])	CC50 [2]	EC50 (Plasmodium falciparum [3])
COc1cc(NCCCC(C)N)c2ncccc2c1 (stereo not given)	0.215 µM	14.4 µM	0.418 µM
CN(C)c1cc(NC(=O)Nc2cccc(Cl)c2)c2ccccc2n1	0.0765 µM	> 10 µM	0.292 µM
COc1ccc2nc(C)cc(Nc3ccc(Oc4ccc5ccccc5c4)c(Cl)c3)c2c1	0.166 µM	7.07 µM	0.206 µM
Cc1ccccc1Nc1nc(NCCO)c2ccccc2n1	1.71 µM	23.7 µM	0.689 µM
CCN1CCN(Cc2ccc(N(CC)CC)cc2)CC1	> 12.5 µM	> 100 µM	3.08 µM
O=C(Nc1ccon1)c1cc(-c2cccnc2)nc2ccc(Br)cc12	1.97 µM	> 81 µM	2.51 µM
O=C(COc1ccc(Cl)cc1)NCCCCNc1ccnc2cc(Cl)ccc12	0.24 µM	> 9.74 µM	0.303 µM
CCCCc1ccc(C(=O)NCCCCNc2ccnc3cc(Cl)ccc23)cc1	0.221 µM	> 10 µM	0.311 µM
CC(C)NC(=O)c1cc(NC(=O)c2cccs2)ccc1N1CCc2ccccc2C1	1.26 µM	16.3 µM	0.479 µM
COc1ccc(C=NNc2nc(Nc3ccc([N+](=O)[O-])cc3)nc(N3CCN(C)CC3)n2)cc1OC	1.82 µM	15.2 µM	0.444 µM
Cc1cc(N2CCN(C)CC2)nc2ccc(NC(=O)/C=C/c3ccc4c(c3)OCO4)cc12	> 1.25 µM	> 10 µM	0.292 µM
COC(=O)c1cccc(NC(=O)C(=Cc2cccc([N+](=O)[O-])c2)NC(=O)c2ccccc2OC)c1	0.994 µM	> 100 µM	2.91 µM
COc1ccc(-n2c(S)nnc2CNc2cccc(C(F)(F)F)c2)cc1	4.86 µM	> 100 µM	2.91 µM
Cc1ccc(-c2nnc(Nc3ccc(F)cc3)c3ccccc23)cc1S(=O)(=O)NCC1CCCO1 (stereo not given)	1.71 µM	> 100 µM	3.11 µM
CCn1c(SCC(=O)NCCc2ccccc2)nc2sc3c(c2c1=O)CCN(C)C3	> 4.82 µM	> 100 µM	3.1 µM
Cc1ccc(C(=O)NCCCCNc2ccnc3cc(Cl)ccc23)cc1[N+](=O)[O-]	0.223 µM	> 10 µM	0.308 µM
O=C(Nc1ccc(C2=NCCN2)cc1)c1cc(Cl)c(C(=O)Nc2ccc(C3=NCCN3)cc2)cc1Cl	0.066 µM	> 10 µM	0.308 µM
CC(C)CNC(=O)c1cnc(NCCCn2ccnc2)nc1NC1CCCC1	0.678 µM	> 10 µM	> 0.298 µM
N=c1c2ccccc2nnn1-c1cccc(C(F)(F)F)c1	0.134 µM	> 10 µM	0.308 µM
O=C(Nc1ccccc1O)c1ccc(Cl)cc1	3.26 µM	36.2 µM	1.09 µM
Cc1cccc(NC(=S)NC2CC3CCCC(C2)N3CCc2ccccc2)c1 (stereo not given)	0.668 µM	30.7 µM	0.914 µM
Cc1ccc(C)c(S(=O)(=O)N=C2C=C(SCC(=O)O)C(=O)c3ccccc32)c1	3.6 µM	17.7 µM	0.527 µM
COc1ccc2nc3ccccc3c(N)c2c1	0.133 µM	5.72 µM	0.176 µM
COc1ccc(CCN2CC(CNC(=O)Cc3cccnc3)C(c3ccc(N(C)C)cc3)C2)cc1OC (stereo not given)	0.997 µM	> 10 µM	> 0.306 µM

Structure (SMILES)	EC50 (Plasmodium falciparum [1])	CC50 [2]	EC50 (Plasmodium falciparum [3])
CCc1ccc2[nH]c(=O)c(CN(Cc3ccc(OC)cc3)C(=S)NCCCN(CC)CC)cc2c1	3.46 µM	18.2 µM	0.554 µM
COc1ccc(CN2CCc3nc(N4CCCCC4)sc3C2)cc1	0.293 µM	> 10 µM	0.301 µM
CCOC(=O)N1CCc2c(sc(NCc3ccc(C)o3)c2C(=O)Nc2ccc(OC)cc2OC)C1	9.1 µM	> 100 µM	3.01 µM
CC[n+]1c(C)cc2c([nH]c3ccccc32)c1C	1.24 µM	> 100 µM	3 µM
CCOc1ccc(C2C(C(=O)OCCc3ccccc3)=C(C)NC3=C2C(=O)CC(C)(C)C3)cc1 (stereo not given)	10.7 µM	> 100 µM	2.94 µM
Cc1ccc(-n2cc(C(=O)N(C)Cc3ccccc3)c3ccccc3c2=O)cc1C	> 9.84 µM	> 100 µM	2.93 µM
Cc1nc(-c2nc3c(s2)CN(C(=O)COc2ccc(Cl)cc2)CC3)cs1	> 10.7 µM	> 100 µM	2.92 µM
Cc1cc(N2CCCC2)nc2ccc(NC(=S)NCCN3CCc4ccccc4C3)cc12	0.044 µM	21.5 µM	0.629 µM
COCCNCC(O)CON=C1c2ccccc2-c2ccccc21 (stereo not given)	4.79 µM	23.3 µM	0.704 µM
COCCN(C)C(=O)COC(c1cccs1)c1cccnc1Cl (stereo not given)	0.407 µM	> 10 µM	0.299 µM
CCOC(=O)c1c(C)oc2c1c1c(c3ccccc32)OCN(C2CCCC2)C1	11.1 µM	> 100 µM	2.96 µM
Fc1ccc(Nc2nc(NCC3CCCO3)c3ccccc3n2)cc1 (stereo not given)	0.214 µM	9.53 µM	0.282 µM
CCCc1c(C)nc2ccc(C)cc2c1O	3.22 µM	> 100 µM	2.96 µM
COc1ccc2cc(CNCCCO)c(N3CCN(c4ccc(F)cc4)CC3)nc2c1	2.99 µM	20.1 µM	0.6 µM
O=C(CCn1c(=O)[nH]c2ccccc21)NCC1Cc2cccc(-c3ccncc3)c2O1 (stereo not given)	3.25 µM	> 100 µM	2.98 µM
COCCn1c(SCC(=O)c2ccc(C)cc2C)nnc1-c1ccco1	> 0.868 µM	> 10 µM	0.295 µM
CCCCNC(=S)N(Cc1cccs1)Cc1cc2cc(C)ccc2[nH]c1=O	1.02 µM	> 10 µM	0.295 µM
COc1ccccc1-n1c(S)nnc1-c1ccccc1O	0.276 µM	> 10 µM	0.295 µM
O=C(Nc1cc(Cl)ccc1O)c1cnn2c(C(F)(F)F)cc(-c3ccc(F)cc3)nc12	> 8.74 µM	> 100 µM	2.91 µM
Cc1cccc(NC2=NC(N)=NC(C)(C)N2)c1	0.0576 µM	> 10 µM	0.312 µM
O=C(Nc1ccc(C2=NCCN2)cc1)c1ccc(-c2ccc(C(=O)Nc3ccc(C4=NCCN4)cc3)cc2)cc1	1.32 µM	> 11.7 µM	0.364 µM
COc1ccc(CN(Cc2cc3cc(OC)c(OC)cc3[nH]c2=O)C(=S)NCCc2ccc(OC)c(OC)c2)cc1	5.58 µM	35.7 µM	1.04 µM
O=C(NCc1ccccc1)c1cnc(NCCC(c2ccccc2)c2ccccc2)nc1NCC1CCCCC1	0.527 µM	> 10 µM	0.291 µM
CCCCCCCN(CCCCCCC)CC(O)c1cc2ccccc2c2cc(Br)ccc12 (stereo not given)	0.867 µM	> 4.63 µM	0.137 µM

Structure (SMILES)	EC50 (Plasmodium falciparum [1])	CC50 [2]	EC50 (Plasmodium falciparum [3])
CC1(C)O[C@@H]2OC([C@@H](O)CNc3ccc([N+](=O)[O-])cc3[N+](=O)[O-])C(O)[C@@H]2O1 (stereo not given in full)	0.299 µM	12 µM	0.366 µM
COC1=CC(=O)c2c(ccc3c(OC)c(O)ccc23)C1=O	0.2 µM	> 10 µM	0.302 µM
CCOC(=O)c1ccc2nc(C)cc(Nc3ccc(N4CCCCC4)cc3)c2c1	0.292 µM	21.2 µM	0.634 µM
CCOc1ccc(Nc2nc(NCc3ccccc3)c3ccccc3n2)cc1	0.0882 µM	5.67 µM	0.17 µM
CCOc1ccc2[nH]c3c(NCCCN(C)C)ncnc3c2c1	0.203 µM	26.6 µM	0.778 µM
COc1ccc(/C=C2/SC(=N)N(c3ccccc3OC)C2=O)cc1	0.35 µM	> 10 µM	0.291 µM
NC(=N[N+](=O)[O-])Nc1ccc(NC(=O)Nc2ccc(Cl)cc2)cc1	> 0.9 µM	> 9.61 µM	0.298 µM
Cc1ccc(NC(=O)COc2ccc(Cl)cc2Cl)nc1	> 5.57 µM	> 100 µM	> 3.03 µM
CCN1CCN(Cc2cc(=O)oc3cc(-c4ccccc4)c(O)cc23)CC1	0.284 µM	12.5 µM	0.385 µM
C=C[C@H]1CN2CC[C@H]1C[C@@H]2[C@@H](OC(=O)c1cccs1)c1ccnc2ccccc12	1.13 µM	> 10 µM	0.294 µM
Cc1cc(Br)cc(Cl)c1OC(=O)c1ccno1	> 12.5 µM	> 100 µM	3 µM
Cc1n(-c2ccccc2)c2c([n+]1C)C(=O)c1ccccc1C2=O	0.00655 µM	0.427 µM	0.0129 µM
C=CCN1/C(=C/C=C/c2sc3ccccc3[n+]2CC=C)Sc2ccccc21	2.03 µM	> 10 µM	0.292 µM
O=C(Nc1cc(Oc2ccc(F)cc2)cc([N+](=O)[O-])c1)c1nc2nc(-c3ccccc3)cc(C(F)(F)F)n2n1	> 12.5 µM	> 100 µM	3.11 µM
c1ccc([Si]2(c3ccccc3)N[Si](c3ccccc3)(c3ccccc3)N[Si](c3ccccc3)(c3ccccc3)N2)cc1	0.521 µM	> 10 µM	0.299 µM
Cn1c2ccncc2c2cc([N+](=O)[O-])ccc21	0.833 µM	31.4 µM	0.938 µM
CC(C)N(CC(=O)Nc1cc(C(C)(C)C)nn1-c1ccc(Cl)c(Cl)c1)C(=O)c1ccc2ccccc2c1	1.31 µM	> 100 µM	3 µM
CCc1cc2c(Nc3ccncc3)ncnc2s1	2.5 µM	> 100 µM	2.94 µM
CCN1C(C)=C(C)S/C1=C\c1ccc2cc(C)ccc2[n+]1C	0.227 µM	5.72 µM	0.17 µM
CCc1ccc(-n2c(C(CC)N(CCc3ccccc3)C(=O)c3cc(OC)cc(OC)c3)nc3ccccc3c2=O)cc1 (stereo not given)	> 0.547 µM	> 10 µM	0.291 µM
Cc1onc(O)c1CC(N)C(=O)O (stereo not given)	0.158 µM	> 10 µM	0.302 µM
CCc1ccc2[nH]c(=O)c(CN(CCN(CC)CC)C(=S)NCCCN(CC)CC)cc2c1	2.38 µM	45.6 µM	1.39 µM

Source: ChEMBL document CHEMBL1156829 (Proc Natl Acad Sci U S A, 2008)
